The source of these data is ChEMBL document CHEMBL1127481, “Adenosine deaminase inhibitors. Synthesis and biological evaluation of 4-amino-1-(2(S)-hydroxy-3(R)-nonyl)-1H-imidazo[4,5-c]pyridine (3-deaza-(+)-EHNA) and certain C1' derivatives” (J Med Chem, 1994).

For orientation: Ki means a measure of affinity in units of concentration, obtained from inhibition or displacement.

The test has as its target T1, Adenosine deaminase (Bos taurus, UniProt P56658).
T1 sequence (P56658 whole entry): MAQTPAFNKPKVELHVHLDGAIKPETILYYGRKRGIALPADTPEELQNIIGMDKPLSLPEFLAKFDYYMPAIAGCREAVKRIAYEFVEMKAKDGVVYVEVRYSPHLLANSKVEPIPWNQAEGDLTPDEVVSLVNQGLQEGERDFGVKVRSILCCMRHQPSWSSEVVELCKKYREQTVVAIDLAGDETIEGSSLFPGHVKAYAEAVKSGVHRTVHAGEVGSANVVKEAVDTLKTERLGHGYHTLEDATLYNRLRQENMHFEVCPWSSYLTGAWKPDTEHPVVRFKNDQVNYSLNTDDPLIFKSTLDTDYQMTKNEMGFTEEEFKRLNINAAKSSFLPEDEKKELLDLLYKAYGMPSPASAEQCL
Briefly: Compound was tested for the inhibition of adenosine deaminase from calf intestinal mucosa.
In turn, `CCCCCC[C@H]([C@@H](O)CO)n1cnc2c(N)nccc21` showed a Ki of 497 nM.
The figure for `CCCCCC[C@H]([C@@H](O)CF)n1cnc2c(N)nccc21` is 4.7 nM; for `CCCCCC[C@H]([C@H](C)O)n1cnc2c(N)nccc21` it is 6.2 nM.
